Assay results from US12084472B2 (Ardelyx, Inc., priority 2015, dated 2024).

Molecular target: T1, human TGR5 (Homo sapiens, UniProt Q8TDU6)
T1 construct: expressed in transfected cells; host or cells: HEK293
T1 sequence (Q8TDU6 1-330): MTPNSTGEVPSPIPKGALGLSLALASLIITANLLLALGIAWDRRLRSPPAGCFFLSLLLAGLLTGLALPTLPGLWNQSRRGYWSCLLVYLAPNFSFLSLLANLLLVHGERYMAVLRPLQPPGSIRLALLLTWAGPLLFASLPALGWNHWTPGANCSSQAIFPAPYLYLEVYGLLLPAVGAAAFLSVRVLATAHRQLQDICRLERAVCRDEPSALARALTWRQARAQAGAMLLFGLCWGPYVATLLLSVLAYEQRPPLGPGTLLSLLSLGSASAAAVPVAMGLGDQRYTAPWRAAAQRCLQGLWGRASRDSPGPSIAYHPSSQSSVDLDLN
Assay: Cell-based TGR5 assay (cAMP generation, HTRF)
Conditions: HEK293 cells stably transfected with human TGR5; cAMP by HTRF; 30 minutes at 37° C.; read-out: pEC50 Human TGR5 (converted)
In short: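 First, compounds in 3-fold serial dilution were placed in HBSS with 10 mM HEPES pH 7.4 and 0.5 mM IBMX. Next, human TGR5-expressing HEK293 cells were added and incubated 30 min at 37° C. Finally, cAMP was detected by HTRF and pEC50 derived by logistic fitting.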

EC50 [nM]	Compound
< 100	CN(CCCCc1cc(Cl)c(COC2(c3cnccc3-c3ccccc3OC3CC3)CC2)cc1Cl)C(=O)NC[C@H](O)[C@@H](O)[C@H](O)[C@H](O)CO (stereo in doubt) [Compound I-204, 1-{4-[2,5-dichloro-4-({1-[4-(2-cyclopropoxyphenyl)pyridin-3-yl]cyclopropoxy}methyl)phenyl]butyl}-1-methyl-3-[(2S,3R,4R,5R)-2,3,4,5,6-pentahydroxyhexyl]urea]
< 100	C=C(CCCNC(=O)[C@@H](O)[C@@H](O)[C@H](O)[C@@H](O)CO)c1ccc(Cl)c(CNC2(c3cnccc3-c3ccccc3OC3CC3)CC2)c1 [Compound I-381, (2S,3S,4R,5S)-N-(4-[4-chloro-3-[([1-[4-(2-cyclopropoxyphenyl)pyridin-3-yl]cyclopropyl]amino)methyl]phenyl]pent-4-en-1-yl)-2,3,4,5,6-pentahydroxyhexanamide]
< 100	O=C(CCCSc1ccc(Cl)c(COC2(c3cnccc3-c3ccccc3OC3CC3)CC2)c1)NC[C@H](O)[C@@H](O)[C@H](O)[C@H](O)CO [Compound I-498, 4-[[4-Chloro-3-([1-[4-(2-cyclopropoxyphenyl)pyridin-3-yl]cyclopropoxy]methyl)phenyl]sulfanyl]-N-[(2S,3R,4R,5R)-2,3,4,5,6-pentahydroxyhexyl]butanamide]
< 100	CCS(=O)(=O)CCN(CCCCC(C)c1ccc(Cl)c(CNC2(c3cnccc3-c3ccccc3OC3CC3)CC2)c1)C(=O)[C@@H](O)[C@@H](O)[C@H](O)[C@@H](O)CO (stereo partly drawn) [Compound I-296, (2S,3S,4R,5S)-N-(5-{4-chloro-3-[({1-[4-(2-cyclopropoxyphenyl)pyridin-3-yl]cyclopropyl}amino)methyl]phenyl}hexyl)-N-[2-(ethanesulfonyl)ethyl]-2,3,4,5,6-pentahydroxyhexanamide]
126 to 1000	Cc1ccc(SCCCCN(CCCCO)C(=O)[C@@H](O)[C@@H](O)[C@H](O)[C@@H](O)CO)cc1CNC1(c2cnccc2-c2ccccc2OC2CC2)CC1 [Compound I-550, (2S,3S,4R,5S)-N-[4-({3-[({1-[4-(2-cyclopropoxyphenyl)pyridin-3-yl]cyclopropyl}amino)methyl]-4-methylphenyl}sulfanyl)butyl]-2,3,4,5,6-pentahydroxy-N-(4-hydroxybutyl)hexanamide]
1260 to 10000	Clc1ccc(Cl)c(CNC2(c3cnccc3-c3ccccc3Cl)CC2)c1 [Compound I-16, 1-[4-(2-chlorophenyl)pyridin-3-yl]-N-[(2,5-dichlorophenyl)methyl]cyclopropan-1-amine]
< 100	C[C@@H](CCCC(=O)NC[C@H](O)[C@@H](O)[C@H](O)[C@H](O)CO)c1ccc(Cl)c(CNC2(c3cnccc3-c3ccccc3OC3CC3)CC2)c1 (single isomer, unassigned) [Compound I-314]
< 100	CSc1ccc(Cl)c(CNC2(c3cnccc3-c3ccccc3OC3CC3)CC2)c1 [Compound I-23, N-{[2-chloro-5-(methylsulfanyl)phenyl]methyl}-1-[4-(2-cyclopropoxyphenyl)pyridin-3-yl]cyclopropan-1-amine]
< 100	CC(CCCCCNC(=O)NC[C@H](O)[C@@H](O)[C@H](O)[C@H](O)CO)c1ccc(Cl)c(CNC2(c3cnccc3-c3ccccc3OC3CC3)CC2)c1 (stereo partly drawn) [Compound I-268, 1-(6-{4-chloro-3-[({1-[4-(2-cyclopropoxyphenyl)pyridin-3-yl]cyclopropyl}amino)methyl]phenyl}heptyl)-3-[(2S,3R,4R,5R)-2,3,4,5,6-pentahydroxyhexyl]urea]
< 100	O=C(CCCCc1cc(Cl)c(COC2(c3cnccc3-c3ccccc3OC3CC3)CC2)cc1Cl)N[C@@H](C(=O)O)[C@@H](O)[C@H](O)[C@H](O)CO [Compound I-153]
< 100	O=C(CCCCc1cc(Cl)c(COC2(c3cnccc3-c3ccccc3OC3CC3)CC2)cc1Cl)N1CCN(C[C@H](O)[C@@H](O)[C@H](O[C@@H]2O[C@H](CO)[C@H](O)[C@H](O)[C@H]2O)[C@H](O)CO)CC1 [Compound I-103, 5-[2,5-dichloro-4-({1-[4-(2-cyclopropoxyphenyl)pyridin-3-yl]cyclopropoxy}methyl)phenyl]-1-{4-[(2S,3R,4R,5R)-2,3,5,6-tetrahydroxy-4-{[(2S,3R,4S,5R,6R)-3,4,5-trihydroxy-6-(hydroxymethyl)oxan-2-yl]oxy}hexyl]piperazin-1-yl}pentan-1-one]
< 100	CC(CCCCN(CCS(C)(=O)=O)C(=O)[C@@H](O)[C@@H](O)[C@H](O)[C@@H](O)CO)c1ccc(Cl)c(CNC2(c3cnccc3-c3ccccc3OC3CC3)CC2)c1 (stereo partly drawn) [Compound I-291, (2S,3S,4R,5S)-N-(5-{4-chloro-3-[({1-[4-(2-cyclopropoxyphenyl)pyridin-3-yl]cyclopropyl}amino)methyl]phenyl}hexyl)-2,3,4,5,6-pentahydroxy-N-(2-methanesulfonylethyl)hexanamide]
< 100	CS(=O)(=O)CCN(CCCCSc1ccc(Cl)c(COC2(c3cnccc3-c3ccccc3OC3CC3)CC2)c1)C(=O)[C@@H](O)[C@@H](O)[C@H](O)[C@@H](O)CO [Compound I-559, (2S,3S,4R,5S)-N-(4-{[4-chloro-3-({1-[4-(2-cyclopropoxyphenyl)pyridin-3-yl]cyclopropoxy}methyl)phenyl]sulfanyl}butyl)-2,3,4,5,6-pentahydroxy-N-(2-methanesulfonylethyl)hexanamide]
< 100	O=C(NCCCCSc1ccc(Cl)c(COC2(c3cnccc3-c3ccccc3OC3CC3)CC2)c1)N[C@H]1CC[C@H](NC(=O)NC[C@H](O)[C@@H](O)[C@H](O)[C@H](O)CO)CC1 [Compound I-632, 1-(4-{[4-chloro-3-({1-[4-(2-cyclopropoxyphenyl)pyridin-3-yl]cyclopropoxy}methyl)phenyl]sulfanyl}butyl)-3-[(1r,4r)-4-({[(2S,3R,4R,5R)-2,3,4,5,6-pentahydroxyhexyl]carbamoyl}amino)cyclohexyl]urea]
< 100	Cc1ccc(C(C)CCCCNC(=O)NC[C@H](O)[C@@H](O)[C@H](O)[C@H](O)CO)cc1COC1(c2cnccc2-c2ccccc2OC2CC2)CC1 (stereo partly drawn) [Compound I-276, 1-{5-[3-({1-[4-(2-cyclopropoxyphenyl)pyridin-3-yl]cyclopropoxy}methyl)-4-methylphenyl]hexyl}-3-[(2S,3R,4R,5R)-2,3,4,5,6-pentahydroxyhexyl]urea]
< 100	O=C(NCCCCC[S+]([O-])c1ccc(Cl)c(COC2(c3cnccc3-c3ccccc3OC3CC3)CC2)c1)NC[C@H](O)[C@@H](O)[C@H](O)[C@H](O)CO (stereo partly drawn) [Compound I-639, 1-{5-[4-chloro-3-({1-[4-(2-cyclopropoxyphenyl)pyridin-3-yl]cyclopropoxy}methyl)benzenesulfinyl]pentyl}-3-[(2S,3R,4R,5R)-2,3,4,5,6-pentahydroxyhexyl]urea]
126 to 1000	CCOC(=O)NCCCN(CCCSc1ccc(Cl)c(COC2(c3cnccc3-c3ccccc3OC3CC3)CC2)c1)C(=O)[C@@H](O)[C@@H](O)[C@H](O)[C@@H](O)CO [Compound I-596, ethyl N-{3-[(2S,3S,4R,5S)-N-(3-{[4-chloro-3-({1-[4-(2-cyclopropoxyphenyl)pyridin-3-yl]cyclopropoxy}methyl)phenyl]sulfanyl}propyl)-2,3,4,5,6-pentahydroxyhexanamido]propyl}carbamate]
